# According to the supplement of paper PMC3974653:
# Where a name gives a salt, the structure may show the parent alone.
# System: MTT (mouse pheochromocytoma)
# Test: IC50 of cell viability (ATP content)
# Conditions: (24 or 48 h)
# Method in brief: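 The IC50 was fitted with a four-parameter logistic equation to normalised CellTiter-Glo ATP luminescence from MTT mouse pheochromocytoma cells. These cells, in white 1536-well plates, had been treated for 24 or 48 hrs with library compounds at 8 final concentrations between 0.5 nM and 46 µM, and luminescence was read after 15 minutes. Positive-control wells served as 100% and DMSO wells as 0%.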
row,Compound,IC50 of cell viability [µM]
1,Cc1c(C)c2c(c(C)c1OC(=O)CCC(=O)OCCO)CC[C@](C)(CCC[C@H](C)CCC[C@H](C)CCCC(C)C)O2 [Tocofersolan],> 46
2,CCN(CC)CCNC(=O)c1cc([S+](C)(=O)[O-])ccc1OC [Tiapride hydrochloride],> 46
3,CO[C@@]1(NC(=O)Cc2cccs2)C(=O)N2C(C(=O)O)=C(COC(N)=O)CS[C@@H]21 [Cefoxitin sodium salt],> 46
4,"CC(O)CO (centres undefined) [1,2-Propylene glycol]",> 46
5,CN(C)CCN(Cc1ccccc1)c1ccccn1.O=C(O)CC(O)(CC(=O)O)C(=O)O [TRIPELENNAMINE CITRATE],> 46
6,OC(=O)CC/1=N/N(CC2=CC=C(Br)C=C2F)C(=O)C3=CC=CC=C13 [Statil],> 46
7,CO/N=C(\C(=O)N[C@@H]1C(=O)N2C(C(=O)[O-])=C(COC(C)=O)CS[C@@H]12)c1csc(N)n1.[Na+] [Cefotaxime sodium salt],> 46
8,CC(N[NH3+])c1ccccc1 (centres undefined) [Mebanazine],> 46
9,C\C1=C(\C=C(\C#N)C(=O)N1)C2=CC=NC=C2 [Milrinone],> 46
10,ClC(Cl)(Cl)Cl [Carbon tetrachloride],> 46
11,"Cn1c(=O)c2c(ncn2C)n(C)c1=O [Caffeine, citrated]",> 46
12,CCOC(=O)c1ccc(NC(=O)CN2CCCCC2)cc1 [Sulcaine],> 46
13,CC(C)CCON=O [Isoamyl nitrite],> 46
14,Clc1ccc2nsnc2c1NC1=NCCN1 [Tizanidina],> 46
15,C=C(Nc1ccc(OCC)cc1)Nc1ccc(OCC)cc1 [Phenacaine hydrochloride],> 46
16,C[C@H](N)C(=O)c1ccccc1 [S(-)-Cathinone hydrochloride],> 46
17,"Nc1cc(O)nc(N)n1 [2,4-Diamino-6-hydroxypyrimidine]",> 46
18,CCCCCCOc1ccccc1C(N)=O [EXALAMIDE],> 46
19,CC(=O)SCC(CC(=O)c1ccc(C)cc1)C(=O)O (centres undefined) [ESONARIMOD],> 46
20,N[C@@H](Cc1cc(I)c(Oc2cc(I)c(O)c(I)c2)c(I)c1)C(=O)O [Levothyroxine],> 46
21,CCOC(=O)c1ccc(OC(=O)CCCCCNC(=N)N)cc1.C[S+](=O)([O-])O [Gabexate mesilate],> 46
22,CN1CCC\C(C1)=C(/C2=CC=CS2)C3=CC=CS3 [TIPEPIDINE HIBENZATE],> 46
23,COc1ccc2cc1Oc1cc3c(cc1OC)CC[N+](C)(C)C3Cc1ccc(cc1)Oc1c(OC)c(OC)cc3c1C(C2)[N+](C)(C)CC3 (centres undefined) [METOCURINE IODIDE],> 46
24,Cc1ccc(-n2nc(C(C)(C)C)cc2NC(=O)Nc2ccc(OCCN3CCOCC3)c3ccccc23)cc1 [DORAMAPIMOD],> 46
25,C[C@H]1C[C@H]2[C@@H]3CC[C@](O)(C(=O)COC(=O)CCC(O)=O)[C@@]3(C)C[C@H](O)[C@@H]2[C@@]\4(C)/C=C\C(=O)\C=C14 [6a-Methylprednisolone 21-hemisuccinate sodium salt],> 46

row,Compound,IC50 of cell viability [µM]
1,C1CCc2nnnn2CC1 [PENTYLENETETRAZOLE],> 46
2,O=C(CO)[C@@H](O)[C@H](O)[C@@H](O)CO [L-(-)-Sorbose],> 46
3,COc1ccc(Cc2cnc(N)nc2N)cc1OC [DIAVERIDINUM],> 46
4,CCNC(=O)[C@H]1CCCN1C(=O)[C@H](CCCNC(=N)N)NC(=O)[C@H](CC(C)C)NC(=O)[C@H](CC(C)C)NC(=O)[C@@H](Cc1ccc(O)cc1)NC(=O)[C@H](CO)NC(=O)[C@@H](Cc1c[nH]c2ccccc12)NC(=O)[C@H](Cc1c[nH]cn1)NC(=O)[C@@H]1CCC(=O)N1 [Leuprolide acetate salt],> 46
5,CN1CCCN=C1/C=C\c1cccs1.O=C(O)[C@@H](O)[C@@H](O)C(=O)O [Pyrantel tartrate],> 46
6,CC[C@@H](O)C(C[C@@H](C)N(C)C)(c1ccccc1)c1ccccc1,> 46
7,CCCCN1CCCC1C(=O)Nc1c(C)cc(C)cc1C (centres undefined) [BUMECAINUM],> 46
8,COc1cc(CNC(=O)CCCC/C=C/C(C)C)ccc1O [Capsaicin],> 46
9,CC(C)=CCC/C(C)=C/C=C/C(C)=C/C=C/C(C)=C/C=C/C=C(C)/C=C/C=C(C)/C=C/C=C(\C)CCC=C(C)C [LYCOPENE],> 46
10,CN1C(=O)CC[S+](=O)([O-])C1c1ccc(Cl)cc1 (centres undefined) [Chlormezanone],> 46
11,CN1CC\C(CC1)=C2/C3=CC=CC=C3CCC4=CC=CN=C24 [Azatadine],> 46
12,CC(C)=CCC/C(C)=C/CC/C(C)=C/CCC(=O)OC/C=C(\C)CCC=C(C)C [Geranyl farnesylacetate],> 46
13,NC(N)=O [Urea],> 46
14,CCC[C@@H]1C[C@@H](C(=O)N[C@@H]([C@H]2O[C@H](SC)[C@H](O)[C@@H](O)[C@H]2O)[C@@H](C)O)N(C)C1 [Lincomycin hydrochloride],> 46
15,Cn1cnc2c1c(=O)[nH]c(=O)n2C [Theobromine],> 46
16,C=CCC1(O)CCC2C3CCC4=CC(=O)CCC4=C3C=CC21C (centres undefined) [Altrenogest],> 46
17,CNCCC(Oc1ccccc1C)c1ccccc1 (centres undefined) [Tomoxetine],> 46
18,Cn1ccnc1S [Methimazole],> 46
19,CC1(C)OC(=O)NC1=O [DIMETHADIONE],> 46
20,CC[n+]1c(-c2ccccc2)c2cc(N)ccc2c2ccc(N)cc21 [Ethidium bromide],> 46
21,CC(C)CN(C[C@@H](O)[C@H](Cc1ccccc1)NC(=O)O[C@H]1CCOC1)[S+](=O)([O-])c1ccc(N)cc1 [Amprenavir],> 46
22,COc1cc(N[S+](=O)([O-])c2ccc(N)cc2)nc(OC)n1 [Sulfadimethoxine],> 46
23,O=c1c2ccccc2[se]n1-c1ccccc1 [Ebselen],> 46
24,C/C1=C2/N=C(C=C3N=C(/C(C)=C4\[N-][C@@H]([C@H](CC(N)=O)[C@]4(C)CCC(=O)NC[C@@H](C)OP(=O)([O-])O[C@@H]4[C@@H](O)[C@H](n5cnc6cc(C)c(C)cc65)O[C@@H]4CO)[C@@]4(C)N=C1[C@H](CCC(N)=O)[C@@]4(C)CC(N)=O)[C@H](CCC(N)=O)C3(C)C)[C@@H](CCC(N)=O)[C@@]2(C)CC(N)=O.[CH3-].[Co+3] [Mecobalamin],> 46
